Measurements taken from patent US20220249352A1, “MICROPARTICLES BASED ON ESTER DERIVATIVES OF HYALURONAN, METHOD OF PRODUCTION, COMPOSITION COMPRISING THEREOF AND USE THEREOF” (CONTIPRO A.S., priority 2019, published 2022).
Blank lines part the entries; values can stand above or below the molecule they belong to.

Experiments:
[1] = test system: HMGCS1 mRNA expression in HaCaT keratinocyte cells; test: Expression of cholesterol synthesis gene HMGCS1 (QRT-PCR); assay type: cell-based; details: HaCaT keratinocytes, 48 hours
Description: (§1) This example illustrates the expressional changes in keratinocyte cholesterol metabolism pathway components (upon treatment with HA−ATRA (prepared as described in examples 5, 9), unbound ATRA and HA (HA+ATRA), hyaluronan (HA), untreated control (CTRL), retinoic isomers (13-cis-RET) and 9 cis (9-cis-RET). The HaCaT keratinocyte cells were individually treated with the compounds described below for 48 hours and sampled in the indicated times. The mRNA expression of HMGCS1, SQLE and DHRS3 was analyzed with quantitative real-time PCR (QRT-PCR) using a StepOnePlus (ThermoFisher, Waltham, Mass., USA). Briefly, 500 ng of total RNA was transcribed to cDNA (High-Capacity cDNA Reverse Transcription Kit, ThermoFisher, Waltham, Mass., USA). Approximately 5 ng of cDNA was used for QRT-PCR reaction in 10 μl volume. The TaqMan assays (all from ThermoFisher, Waltham, Mass., USA) used were: HMGCS1 (Hs00940429_m1), SQLE (Hs01123768_m1), DHRS3 (Hs01044021_m1) and RPL13A (Hs04194366_g1). Duplicate reaction tubes were set up for each sample. All expression values for HMGCS1, SQLE and DHRS3 were related to the amount of the housekeeping gene RPL13A to correct for variations in RNA levels and efficiency in cDNA synthesis. Regarding the analyzed enzyme involved in cholesterol synthesis, only treatment with microparticles of HA−ATRA increased the expression of HMGCS1 and SQLE, all samples containing retinoids increased expression of positive control DHRS3 (FIG. 10). However, microparticles HA−ATRA can upregulate cholesterol synthesis gene HMGCS1 like when the molarity of the retinoic acid bound to HA is the same in both treatments, this is shown in FIG. 11.

[2] = test system: SQLE mRNA expression in HaCaT keratinocyte cells; test: Expression of cholesterol synthesis gene SQLE (QRT-PCR); assay type: cell-based; details: HaCaT keratinocytes, 48 hours
Description: as §1

[3] = Thermogravimetric analysis (TGA), thermal decomposition; assay type: physicochemical
Description: In this disclosure, it is further reported that the amount of active ATRA is conserved after four weeks of storage at 40° C., in the absence of any further toxic antioxidant, which is an advantage to the previously reported art such as US 20190015366 A1 and WO2015092602A1, that require the presence of the toxic benzoyl peroxide, which have been reported as an inductor of photo-carcinogenesis in hairless mice after solar radiation. Similar art was reported in US20100166852A1. In the present embodiments, the microparticles made of HA−ATRA were stored for prolonged times in the presence of air the microparticles are stable, while the obtained powders degraded faster (FIGS. 2 and 4). […] In this disclosure, the thermal decomposition of the HA−ATRA microparticles was compared with the native polysaccharide and pure retinoic acid using thermogravimetric analysis (TGA) according to de Mendonça CMS, de Barros Lima IP, Aragão CFS, Gomes APB in Thermal compatibility between hydroquinone and retinoic acid in pharmaceutical formulations. Journal of Thermal Analysis and calorimetry 2014; 115:2277-85.
In brief, the TGA (Thermogravimetric analyses) was performed on the microparticles on a […]. About 2 mg of powder was accurately weighed samples were loaded into aluminum pans and analyzed. […]

Compound: CC1=C(/C=C/C(C)=C\C=C\C(C)=C\C(=O)O)C(C)(C)CCC1 [9-cis retinoic, 9-cis retinoic acid]
- expression of HMGCS1 [1]: neither unbound 9-cis retinoic nor 13-cis retinoic acid were able to upregulate
- expression of SQLE [2]: neither unbound 9-cis retinoic nor 13-cis retinoic acid were able to upregulate

Compound: CC1=C(/C=C/C(C)=C/C=C/C(C)=C\C(=O)O)C(C)(C)CCC1 [13-cis retinoic acid]
- expression of HMGCS1 [1]: neither unbound 9-cis retinoic nor 13-cis retinoic acid were able to upregulate
- expression of SQLE [2]: neither unbound 9-cis retinoic nor 13-cis retinoic acid were able to upregulate

- temperature range of decomposition (three stages, TG curve) [3]: 185−609 °C
Compound: CC(C=CC1=C(C)CCCC1(C)C)=CC=CC(C)=CC(=O)O [ATRA, 3,7-dimethyl-9-(2,6,6-trimethyl-1-cyclohexene-1-yl)-2,4,6,8-nonatetraenoic acid]
- expression of HMGCS1 [1]: did not induce
- expression of SQLE [2]: did not induce
